According to article PMC4404410, “Crystal structure of X‐prolyl aminopeptidase fromCaenorhabditis elegans: A cytosolic enzyme with a di‐nuclear active site” (FEBS Open Bio, 2015):
Where “and” joins values, the source holds several entries; their conditions need not be identical. Equal values may be shown once.

Key:
[1] = molecular target: T1, C. elegans APP-1 (X-prolyl aminopeptidase, aminopeptidase P1) (Caenorhabditis elegans, UniProt O44750); assay: HPLC assay of bradykinin cleavage ([…] nm); assay type: biochemical
T1 construct: full length (residues 1-616), N-terminal His-tag kept, pET19b, E. coli BL21 Star (DE3); homodimer, monomer 71977 Da by MS; two Zn2+ per monomer in crystal
T1 sequence (O44750 1-616): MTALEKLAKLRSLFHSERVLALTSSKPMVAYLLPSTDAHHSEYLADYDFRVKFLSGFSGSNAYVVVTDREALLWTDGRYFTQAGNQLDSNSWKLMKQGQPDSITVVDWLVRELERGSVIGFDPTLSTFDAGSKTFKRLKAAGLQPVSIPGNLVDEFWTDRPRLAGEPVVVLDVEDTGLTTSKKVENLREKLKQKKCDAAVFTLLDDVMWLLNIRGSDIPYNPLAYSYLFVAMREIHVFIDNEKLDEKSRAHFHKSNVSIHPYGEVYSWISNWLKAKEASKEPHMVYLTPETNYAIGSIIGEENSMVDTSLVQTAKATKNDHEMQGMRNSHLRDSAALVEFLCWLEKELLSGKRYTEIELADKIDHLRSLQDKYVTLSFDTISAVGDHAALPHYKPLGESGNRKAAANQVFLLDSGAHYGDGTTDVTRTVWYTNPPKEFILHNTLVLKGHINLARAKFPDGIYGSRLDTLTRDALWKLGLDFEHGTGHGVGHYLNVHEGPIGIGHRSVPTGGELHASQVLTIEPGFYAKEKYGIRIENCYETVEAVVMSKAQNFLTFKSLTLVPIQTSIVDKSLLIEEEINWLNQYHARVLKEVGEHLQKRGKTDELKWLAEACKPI

[2] = molecular target: the molecule itself; assay: AUC; sedimentation velocity; 0.3 mg/ml APP-1 dialysed against 10 mM Tris/HCl pH 7.5, 150 mM KCl; 40,000 rpm, 20 °C; Rayleigh interference and absorbance at 275 nm

C[C@H](NC(=O)[C@@H]1CCCN1C(=O)[C@@H]1CCCN1C(=O)[C@@H](O)[C@H](N)Cc1ccccc1)C(N)=O [apstatin]
inhibition at 10 µM [1]: 92%

B1: Caenorhabditis elegans aminopeptidase P1 (APP-1), recombinant, His-tagged (enzyme, C. elegans, UniProt O44750 1-616, looked up)
chain: MTALEKLAKLRSLFHSERVLALTSSKPMVAYLLPSTDAHHSEYLADYDFRVKFLSGFSGSNAYVVVTDREALLWTDGRYFTQAGNQLDSNSWKLMKQGQPDSITVVDWLVRELERGSVIGFDPTLSTFDAGSKTFKRLKAAGLQPVSIPGNLVDEFWTDRPRLAGEPVVVLDVEDTGLTTSKKVENLREKLKQKKCDAAVFTLLDDVMWLLNIRGSDIPYNPLAYSYLFVAMREIHVFIDNEKLDEKSRAHFHKSNVSIHPYGEVYSWISNWLKAKEASKEPHMVYLTPETNYAIGSIIGEENSMVDTSLVQTAKATKNDHEMQGMRNSHLRDSAALVEFLCWLEKELLSGKRYTEIELADKIDHLRSLQDKYVTLSFDTISAVGDHAALPHYKPLGESGNRKAAANQVFLLDSGAHYGDGTTDVTRTVWYTNPPKEFILHNTLVLKGHINLARAKFPDGIYGSRLDTLTRDALWKLGLDFEHGTGHGVGHYLNVHEGPIGIGHRSVPTGGELHASQVLTIEPGFYAKEKYGIRIENCYETVEAVVMSKAQNFLTFKSLTLVPIQTSIVDKSLLIEEEINWLNQYHARVLKEVGEHLQKRGKTDELKWLAEACKPI
notes: Aminopeptidase P1 (APP-1, X-prolyl aminopeptidase), C. elegans, cytosolic; cDNA amplified with primers from the start codon to the stop codon; residues 1-616 (N-terminal domain 1-163, middle domain 164-318, C-terminal domain 319-616); N-terminal His tag and linker come from pET19b and were not removed; Mass spectrometry fits the His-tagged protein after removal of the start methionine (calculated …)
stoichiometry N [2]: 2 and 4
